# Assay results reported in ChEMBL document CHEMBL4715724, “Novel 5-substituted-2-anilinoquinolines with 3-(morpholino or 4-methylpiperazin-1-yl)propoxy moiety as broad spectrum antiproliferative agents: Synthesis, cell based assays and kinase screening” (Bioorg Med Chem Lett, 2016).
# Columns and labels:
# NCI-H23 = assay: cells; type: functional; conditions: Homo sapiens, time 48 hrs
# Description: Growth inhibition of human NCI-H23 cells incubated for 48 hrs by sulforhodamine B assay
# NCI-H460 = assay: cells; type: functional; conditions: Homo sapiens, time 48 hrs
# Description: Growth inhibition of human NCI-H460 cells incubated for 48 hrs by sulforhodamine B assay
# NCI-H522 = assay: cells; type: functional; conditions: Homo sapiens, time 48 hrs
# Description: Growth inhibition of human NCI-H522 cells incubated for 48 hrs by sulforhodamine B assay
# UACC-62 = assay: cells; type: functional; conditions: Homo sapiens, time 48 hrs
# Description: Growth inhibition of human UACC-62 cells incubated for 48 hrs by sulforhodamine B assay
# OVCAR-8 = assay: cells; type: functional; conditions: Homo sapiens, time 48 hrs
# Description: Growth inhibition of human OVCAR-8 cells incubated for 48 hrs by sulforhodamine B assay
# [1] = Cytotoxicity against human HFF-1 cells assessed as cell growth inhibition by MTT assay; type: cell-based
# [2] = target: CDK3/Cyclin E (Homo sapiens) (UniProt P24864+Q00526); assay: Inhibition of full length C-terminal His6-tagged human CDK3/full length N-terminal GST-tagged human Cyclin E expressed in baculovirus infected Sf21 insect cells assessed as residual activity at 10 uM relative to control
# [3] = target: Ephrin type-B receptor 2 (Homo sapiens) (UniProt P29323); assay: Inhibition of N-terminal His6-tagged human EphB2 (560 to end residues) expressed in baculovirus-infected Sf21 cells assessed as residual activity at 10 uM relative to control
# [4] = target: Inhibitor of nuclear factor kappa-B kinase subunit alpha (Homo sapiens) (UniProt O15111); assay: Inhibition of human IKKalpha at 10 uM relative to control
# [5] = target: Mitogen-activated protein kinase 1 (Homo sapiens) (UniProt P28482); assay: Inhibition of recombinant full length N-terminal GST-tagged human MAPK1 expressed in Escherichia coli at 10 uM relative to control
# [6] = target: Platelet-derived growth factor receptor beta (Homo sapiens) (UniProt P09619); assay: Inhibition of recombinant N-terminal His6-tagged human PDGFRbeta (557 to end residues) expressed in baculovirus infected Sf21 insect cells at 10 uM relative to control
# [7] = target: Rho-associated protein kinase 1 (Homo sapiens) (UniProt Q13464); assay: Inhibition of auto-activated recombinant N-terminal His6-tagged human ROCK1 (17 to 535 residues) expressed in baculovirus infected Sf21 insect cells at 10 uM incubated in presence of Mg/ATP relative to control
# [8] = target: High affinity nerve growth factor receptor (Homo sapiens, UniProt P04629); assay: Inhibition of recombinant N-terminal His6-tagged human TrkA (440 to end residues) expressed in baculovirus infected Sf21 insect cells at 10 uM relative to control
# [9] = tested on: PI3-kinase p110-alpha/p85-alpha (Homo sapiens), P27986+P42336 [E542K]; assay: Inhibition of p110alpha/p85alpha E542K mutant (unknown origin) at 10 uM relative to control; type: protein-complex assay
# [10] = tested on: PI3-kinase p110-alpha/p85-alpha (Homo sapiens), P27986+P42336 [E545K]; assay: Inhibition of p110alpha/p85alpha E545K mutant (unknown origin) at 10 uM relative to control; type: protein-complex assay
# [11] = tested on: Panel leukemia (Carcinoma cell lines); assay: cells; type: functional; conditions: Homo sapiens, time 48 hrs
# Description: Growth inhibition of human Panel leukemia (Carcinoma cell lines) incubated for 48 hrs by sulforhodamine B assay
# [12] = tested on: Panel colon (Carcinoma cell lines); assay: cells; type: functional; conditions: Homo sapiens, time 48 hrs
# Description: Growth inhibition of human Panel colon (Carcinoma cell lines) incubated for 48 hrs by sulforhodamine B assay
# [13] = tested on: Panel ovarian (Carcinoma cell lines); assay: cells; type: functional; conditions: Homo sapiens, time 48 hrs
# Description: Growth inhibition of human Panel ovarian (Carcinoma cell lines) incubated for 48 hrs by sulforhodamine B assay
# [14] = tested on: Panel renal (Carcinoma cell lines); assay: cells; type: functional; conditions: Homo sapiens, time 48 hrs
# Description: Growth inhibition of human Panel renal (Carcinoma cell lines) incubated for 48 hrs by sulforhodamine B assay
# Sequence of Inhibitor of nuclear factor kappa-B kinase subunit alpha (Homo sapiens) (O15111 whole entry): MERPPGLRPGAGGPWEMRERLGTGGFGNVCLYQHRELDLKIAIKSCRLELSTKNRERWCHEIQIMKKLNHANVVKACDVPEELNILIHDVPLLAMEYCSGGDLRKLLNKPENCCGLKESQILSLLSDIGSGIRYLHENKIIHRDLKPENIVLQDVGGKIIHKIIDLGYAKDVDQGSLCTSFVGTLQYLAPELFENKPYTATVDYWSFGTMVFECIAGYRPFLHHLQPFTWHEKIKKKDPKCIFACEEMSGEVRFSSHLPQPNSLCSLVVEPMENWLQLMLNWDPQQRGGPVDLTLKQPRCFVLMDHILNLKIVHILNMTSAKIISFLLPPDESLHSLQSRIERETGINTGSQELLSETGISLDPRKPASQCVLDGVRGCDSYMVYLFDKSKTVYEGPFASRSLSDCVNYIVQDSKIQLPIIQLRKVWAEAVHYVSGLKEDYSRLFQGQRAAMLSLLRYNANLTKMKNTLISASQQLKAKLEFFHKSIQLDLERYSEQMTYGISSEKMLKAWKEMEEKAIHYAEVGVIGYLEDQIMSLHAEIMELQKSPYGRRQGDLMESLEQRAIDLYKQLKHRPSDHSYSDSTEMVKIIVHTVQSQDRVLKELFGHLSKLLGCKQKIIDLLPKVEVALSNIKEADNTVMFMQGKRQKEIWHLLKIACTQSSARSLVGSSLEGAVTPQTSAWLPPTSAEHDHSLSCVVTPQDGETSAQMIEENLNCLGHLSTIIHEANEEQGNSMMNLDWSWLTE
# Sequence of Ephrin type-B receptor 2 (Homo sapiens) (P29323 whole entry): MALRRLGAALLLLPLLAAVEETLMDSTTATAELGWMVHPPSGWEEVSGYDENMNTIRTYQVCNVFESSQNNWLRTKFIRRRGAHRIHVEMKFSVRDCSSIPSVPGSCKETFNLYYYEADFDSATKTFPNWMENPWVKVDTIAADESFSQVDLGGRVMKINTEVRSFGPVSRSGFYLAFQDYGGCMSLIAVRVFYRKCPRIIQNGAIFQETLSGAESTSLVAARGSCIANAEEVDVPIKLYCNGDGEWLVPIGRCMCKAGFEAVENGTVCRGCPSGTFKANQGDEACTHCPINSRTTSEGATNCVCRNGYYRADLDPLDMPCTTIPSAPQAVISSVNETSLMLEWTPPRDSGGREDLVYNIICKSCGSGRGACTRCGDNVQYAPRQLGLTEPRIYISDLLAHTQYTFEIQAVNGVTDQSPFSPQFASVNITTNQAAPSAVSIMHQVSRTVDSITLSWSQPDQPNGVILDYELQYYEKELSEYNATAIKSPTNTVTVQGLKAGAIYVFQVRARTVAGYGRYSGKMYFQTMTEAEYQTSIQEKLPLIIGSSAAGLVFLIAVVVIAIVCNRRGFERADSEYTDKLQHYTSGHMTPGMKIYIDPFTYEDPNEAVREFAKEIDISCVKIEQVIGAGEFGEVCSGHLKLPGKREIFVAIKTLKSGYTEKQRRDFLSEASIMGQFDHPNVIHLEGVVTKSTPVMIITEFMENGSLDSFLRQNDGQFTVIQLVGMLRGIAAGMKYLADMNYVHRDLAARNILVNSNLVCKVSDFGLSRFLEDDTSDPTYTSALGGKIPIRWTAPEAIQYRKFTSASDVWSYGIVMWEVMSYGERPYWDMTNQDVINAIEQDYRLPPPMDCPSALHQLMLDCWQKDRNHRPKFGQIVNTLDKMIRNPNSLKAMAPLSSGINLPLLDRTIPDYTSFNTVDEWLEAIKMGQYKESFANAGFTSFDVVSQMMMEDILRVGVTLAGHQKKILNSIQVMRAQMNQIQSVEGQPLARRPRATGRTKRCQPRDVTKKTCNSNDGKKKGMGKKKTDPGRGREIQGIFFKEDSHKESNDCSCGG
# Sequence of Mitogen-activated protein kinase 1 (Homo sapiens) (P28482 whole entry): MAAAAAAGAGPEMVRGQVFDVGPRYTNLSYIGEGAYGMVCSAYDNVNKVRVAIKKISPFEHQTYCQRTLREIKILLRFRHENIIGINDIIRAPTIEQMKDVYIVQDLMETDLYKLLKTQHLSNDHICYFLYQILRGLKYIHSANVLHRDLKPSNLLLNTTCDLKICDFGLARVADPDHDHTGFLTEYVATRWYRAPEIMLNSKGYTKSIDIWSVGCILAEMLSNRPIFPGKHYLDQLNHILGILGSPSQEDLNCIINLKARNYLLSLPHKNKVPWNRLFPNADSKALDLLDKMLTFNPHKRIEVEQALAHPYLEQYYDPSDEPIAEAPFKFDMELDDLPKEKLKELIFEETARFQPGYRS
# Sequence of Rho-associated protein kinase 1 (Homo sapiens) (Q13464 2-1354 limits assumed): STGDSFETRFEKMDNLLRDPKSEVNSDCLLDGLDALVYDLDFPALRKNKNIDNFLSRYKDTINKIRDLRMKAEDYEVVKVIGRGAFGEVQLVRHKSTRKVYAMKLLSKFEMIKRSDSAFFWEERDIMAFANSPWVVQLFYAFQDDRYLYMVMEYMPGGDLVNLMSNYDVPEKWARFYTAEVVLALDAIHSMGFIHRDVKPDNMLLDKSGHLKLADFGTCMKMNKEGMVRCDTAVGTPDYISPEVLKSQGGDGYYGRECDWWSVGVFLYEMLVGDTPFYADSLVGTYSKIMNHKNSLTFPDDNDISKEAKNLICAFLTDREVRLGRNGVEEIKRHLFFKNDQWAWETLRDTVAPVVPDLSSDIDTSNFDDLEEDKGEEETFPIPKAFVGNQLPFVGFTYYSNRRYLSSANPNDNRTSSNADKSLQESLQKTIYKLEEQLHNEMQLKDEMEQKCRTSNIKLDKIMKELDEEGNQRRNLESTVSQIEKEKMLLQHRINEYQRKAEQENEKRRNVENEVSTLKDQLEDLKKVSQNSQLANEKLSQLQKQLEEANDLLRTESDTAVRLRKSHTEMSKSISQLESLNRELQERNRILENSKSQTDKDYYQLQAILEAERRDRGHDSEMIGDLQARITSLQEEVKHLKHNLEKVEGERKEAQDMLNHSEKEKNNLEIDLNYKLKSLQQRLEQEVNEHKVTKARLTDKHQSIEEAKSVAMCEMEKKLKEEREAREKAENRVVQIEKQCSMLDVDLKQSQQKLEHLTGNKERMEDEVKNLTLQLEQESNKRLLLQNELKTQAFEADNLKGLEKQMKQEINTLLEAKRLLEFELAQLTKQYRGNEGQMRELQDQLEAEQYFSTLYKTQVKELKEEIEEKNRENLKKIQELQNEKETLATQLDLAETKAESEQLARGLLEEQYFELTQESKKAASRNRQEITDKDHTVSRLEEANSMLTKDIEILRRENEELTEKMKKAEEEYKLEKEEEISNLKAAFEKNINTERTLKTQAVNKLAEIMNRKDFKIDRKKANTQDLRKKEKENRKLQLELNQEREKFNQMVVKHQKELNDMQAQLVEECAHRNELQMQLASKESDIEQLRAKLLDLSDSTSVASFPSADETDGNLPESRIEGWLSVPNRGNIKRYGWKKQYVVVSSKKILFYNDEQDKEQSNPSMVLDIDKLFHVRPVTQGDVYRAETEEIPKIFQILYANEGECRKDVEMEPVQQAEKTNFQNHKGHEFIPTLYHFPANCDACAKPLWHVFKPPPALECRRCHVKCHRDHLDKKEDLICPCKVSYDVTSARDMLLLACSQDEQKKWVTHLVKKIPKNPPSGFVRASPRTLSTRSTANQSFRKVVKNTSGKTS
# Sequence of Platelet-derived growth factor receptor beta (Homo sapiens) (P09619 whole entry, the tested form may be a part): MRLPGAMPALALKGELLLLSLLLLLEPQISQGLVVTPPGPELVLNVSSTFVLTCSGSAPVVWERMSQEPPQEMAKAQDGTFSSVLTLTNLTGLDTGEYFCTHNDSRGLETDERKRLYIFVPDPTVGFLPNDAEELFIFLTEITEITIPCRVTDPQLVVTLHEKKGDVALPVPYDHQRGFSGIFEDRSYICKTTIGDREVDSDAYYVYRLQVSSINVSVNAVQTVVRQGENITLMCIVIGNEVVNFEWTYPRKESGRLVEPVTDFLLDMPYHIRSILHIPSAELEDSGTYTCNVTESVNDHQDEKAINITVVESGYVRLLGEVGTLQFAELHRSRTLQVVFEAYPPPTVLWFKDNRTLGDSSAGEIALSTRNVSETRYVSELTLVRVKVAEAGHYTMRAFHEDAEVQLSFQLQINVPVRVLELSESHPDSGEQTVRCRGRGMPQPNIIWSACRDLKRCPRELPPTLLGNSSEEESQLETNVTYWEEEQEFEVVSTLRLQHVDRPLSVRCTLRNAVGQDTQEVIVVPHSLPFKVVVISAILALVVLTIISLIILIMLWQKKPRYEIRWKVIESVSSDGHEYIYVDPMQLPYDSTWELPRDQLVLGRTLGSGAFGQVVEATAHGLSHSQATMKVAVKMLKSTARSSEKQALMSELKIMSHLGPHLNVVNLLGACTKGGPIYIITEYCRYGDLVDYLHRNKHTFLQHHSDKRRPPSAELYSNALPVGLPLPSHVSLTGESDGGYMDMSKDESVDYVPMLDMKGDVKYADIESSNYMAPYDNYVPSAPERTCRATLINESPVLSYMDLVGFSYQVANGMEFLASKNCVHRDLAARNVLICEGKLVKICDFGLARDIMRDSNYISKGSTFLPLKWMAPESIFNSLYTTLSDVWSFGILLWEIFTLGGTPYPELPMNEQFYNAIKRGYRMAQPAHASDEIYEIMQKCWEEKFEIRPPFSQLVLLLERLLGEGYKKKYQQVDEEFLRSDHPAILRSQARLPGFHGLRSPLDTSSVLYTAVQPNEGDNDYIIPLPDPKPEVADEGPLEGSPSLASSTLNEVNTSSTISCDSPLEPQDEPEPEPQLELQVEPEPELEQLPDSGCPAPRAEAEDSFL
smiles,measurement,setting,value
CN1CCN(CCCOc2cccc3nc(Nc4ccc(Cl)c(C(F)(F)F)c4)ccc23)CC1,GI50,NCI-H23,1780 nM
same,GI50,NCI-H460,1720 nM
same,GI50,NCI-H522,1830 nM
same,GI50,UACC-62,1720 nM
same,GI50,OVCAR-8,1920 nM
same,GI50,[1],> 10000 nM
same,Activity,[2],< 60%
same,Activity,[3],< 60%
same,inhibition,[4],< 60%
same,inhibition,[5],< 60%
same,inhibition,[6],< 60%
same,inhibition,[7],< 60%
same,inhibition,[8],96%
same,inhibition,[9],< 60%
same,inhibition,[10],< 60%
same,GI50,[11],1380 nM
same,LC50 (50% lethal concentration),[11],7780 nM
same,TGI,[11],3480 nM
same,GI50,[12],1580 nM
same,TGI,[12],3170 nM
same,CC50,[12]; read-out: LC50 (the source's name),6270 nM
same,GI50,[13],1980 nM
same,LC50,[13],10300 nM
same,TGI,[13],4180 nM
same,GI50,[14],1620 nM
same,LC50 (lethal concentration 50%),[14],6460 nM
same,TGI,[14],3230 nM
